From patent publication US11447465B2, “Pharmaceutical compounds for treatment of medical disorders” (Achillion Pharmaceuticals, Inc., priority 2017, dated 2022)

Target: Human Factor D (Homo sapiens (Human), UniProt P00746)
Assay: Human Factor D Assay
Type: biochemical
Details: Table 5; Human Factor D 80 nM, substrate Z-L-Lys-SBzl; read-out: IC50 (Stars)
Method: Human Factor D (purified from human serum, Complement Technology, Inc.) at 80 nM final concentration is incubated with test compound at various concentrations for 5 min at room temperature in 50 mM Tris, 1M NaCl, pH 7.5. A synthetic substrate Z-L-Lys-SBzl and DTNB (Ellman's reagent) are added to final concentrations of 100 μM each. Absorbance at 405 nm (A405) is recorded at 30 second intervals for 30 min using a microplate spectrophotometer. IC50 values are calculated by nonlinear regression of Complement Factor D reaction rates as a function of test compound concentration.

Human Factor D, sequence (P00746 26-253): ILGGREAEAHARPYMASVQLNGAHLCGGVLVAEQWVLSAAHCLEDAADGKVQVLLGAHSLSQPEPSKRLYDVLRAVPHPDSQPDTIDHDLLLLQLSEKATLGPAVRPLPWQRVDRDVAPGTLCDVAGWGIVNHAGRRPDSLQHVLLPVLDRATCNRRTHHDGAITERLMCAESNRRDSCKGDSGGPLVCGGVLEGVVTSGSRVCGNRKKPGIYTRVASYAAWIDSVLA

CC(=O)c1nn(CC(=O)N2C[C@H]3C[C@H]3[C@H]2C(=O)Nc2nc(Br)ccc2C)c2cc(C)sc12 [Compound T-2, (1R,2S,5S)-3-(2-(3-acetyl-5-methyl-1H-thieno[3,2-c]pyrazol-1-yl)acetyl)-N-(6-bromo-3-methylpyridin-2-yl)-3-azabicyclo[3.10]hexane-2-carboxamide] and CC(=O)c1nn(CC(=O)N2C[C@H]3C[C@H]3[C@H]2C(=O)Nc2nc(Br)ccc2C2CC2)c2cc(C)sc12 [Compound T-10, (1R,2S,5S)-3-(2-(3-acetyl-5-methyl-1H-thieno[3,2-c]pyrazol-1-yl)acetyl)-N-(6-bromo-3-cyclopropylpyridin-2-yl)-3-azabicyclo[3.1.0]hexane-2-carboxamide] cannot be ordered by IC50: less than 1000 nM for the first, less than 1000 nM for the second.

CC(=O)c1nn(CC(=O)N2C[C@H](F)C[C@H]2C(=O)Nc2cccc(Br)n2)c2ccc(S(C)(=N)=O)cc12 (stereo partly drawn) [Compound T-3, (2S,4R)-1-(2-(3-acetyl-5-(S-methylsulfonimidoyl)-1H-indazol-1-yl)acetyl)-N-(6-bromopyridin-2-yl)-4-fluoropyrrolidine-2-carboxamide] and CC(=O)c1nn(CC(=O)N2C[C@H](F)C[C@H]2C(=O)Nc2cccc(Br)n2)c2cc(S(C)(=N)=O)ccc12 (stereo partly drawn) [Compound T-5, (2S,4R)-1-(2-(3-acetyl-6-(S-methylsulfonimidoyl)-1H-indazol-1-yl)acetyl)-N-(6-bromopyridin-2-yl)-4-fluoropyrrolidine-2-carboxamide] cannot be ordered by IC50: less than 1000 nM for the first, less than 1000 nM for the second.

CC(=O)c1nn(CC(=O)N2C[C@H](F)C[C@H]2C(=O)Nc2cccc(Br)n2)c2cc(/S(C)=N/C(=O)C(F)(F)F)ccc12 (stereo partly drawn) [Compound T-4, (2S,4R)-1-(2-(3-acetyl-6-((E)-S-methyl-N-(2,2,2-trifluoroacetyl)sulfinimidoyl)-1H-indazol-1-yl)acetyl)-N-(6-bromopyridin-2-yl)-4-fluoropyrrolidine-2-carboxamide] and CC(=O)c1nn(CC(=O)N2C[C@H](F)C[C@H]2C(=O)Nc2cccc(Br)n2)c2cc(S(C)(=O)=NC#N)ccc12 (some centres unmarked) [Compound T-11] cannot be ordered by IC50: less than 1000 nM for the first, less than 1000 nM for the second.

CC(=O)c1nn(CC(=O)N2[C@H](C(=O)Nc3cccc(Br)n3)C[C@@]3(C)C[C@@H]23)c2cc(S(C)(=N)=O)ccc12 (stereo partly drawn) [Compound T-6, (1R,3S,5R)-2-(2-(3-acetyl-6-(S-methylsulfonimidoyl)-1H-indazol-1-yl)acetyl)-N-(6-bromopyridin-2-yl)-5-methyl-2-azabicyclo[3.1.0]hexane-3-carboxamide] and CC(=O)c1nn(CC(=O)N2[C@H](C(=O)Nc3nc(Br)ccc3C)C[C@@]3(C)C[C@@H]23)c2cc(S(C)(=N)=O)ccc12 (stereo partly drawn) [Compound T-33, (1R,3S,5R)-2-(2-(3-acetyl-6-(S-methylsulfonimidoyl)-1H-indazol-1-yl)acetyl)-N-(6-bromo-3-methylpyridin-2-yl)-5-methyl-2-azabicyclo[3.1.0]hexane-3-carboxamide] cannot be ordered by IC50: less than 1000 nM for the first, less than 1000 nM for the second.

CC(=O)c1nn(CC(=O)N2C[C@H]3C[C@H]3[C@H]2C(=O)Nc2cccc(Br)n2)c2cc(S(C)(=N)=O)ccc12 (stereo partly drawn) [Compound T-7, (1R,2S,5S)-3-(2-(3-acetyl-6-(S-methylsulfonimidoyl)-1H-indazol-1-yl)acetyl)-N-(6-bromopyridin-2-yl)-3-azabicyclo[3.1.0]hexane-2-carboxamide] and CC(=O)c1cc(C(N)=O)n(CC(=O)N2C[C@H](F)C[C@H]2C(=O)Nc2cccc(Br)n2)n1 [Compound T-23, 3-acetyl-1-(2-((2S,4R)-2-((6-bromopyridin-2-yl)carbamoyl)-4-fluoropyrrolidin-1-yl)-2-oxoethyl)-1H-pyrazole-5-carboxamide] cannot be ordered by IC50: less than 1000 nM for the first, less than 1000 nM for the second.

First: CC(=O)c1nn(CC(=O)N2C[C@H](F)C[C@H]2C(=O)NCC23C4C5C6C4C2C6C53)c2ccccc12 (stereo partly drawn) [Compound T-8, (2S,4R)-1-(2-(3-acetyl-1H-indazol-1-yl)acetyl)-N-(cuban-1-ylmethyl)-4-fluoropyrrolidine-2-carboxamide]
Second: CC(=O)c1nn(CC(=O)N2[C@H](C(=O)Nc3nc(Br)ccc3C)C[C@@]3(C)C[C@@H]23)c2ccccc12 [Compound T-13, (1R,3S,5R)-2-(2-(3-acetyl-1H-indazol-1-yl)acetyl)-N-(6-bromo-3-methylpyridin-2-yl)-5-methyl-2-azabicyclo[3.1.0]hexane-3-carboxamide]
The IC50 of the first is higher: 1000 to 10000 nM for the first, less than 1000 nM for the second. The second is the more potent here.

CC(=O)c1nn(CC(=O)N2[C@H](C(=O)Nc3nc(Br)ccc3C)C[C@@]3(C)C[C@@H]23)c2ccc(NC(=O)C3CCCCC3(F)F)cc12 (stereo partly drawn) [Compound T-9, (1R,3S,5R)-2-(2-(3-acetyl-5-(2,2-difluorocyclohexane-1-carboxamido)-1H-indazol-1-yl)acetyl)-N-(6-bromo-3-methylpyridin-2-yl)-5-methyl-2-azabicyclo[3.10]hexane-3-carboxamide] and CC(=O)c1nn(CC(=O)N2[C@H](C(=O)Nc3nc(Br)ccc3C)C[C@@]3(C)C[C@@H]23)c2ccc(NC(=O)C3CCCC3(F)F)cc12 (stereo partly drawn) [Compound T-27, (1R,3S,5R)-2-(2-(3-acetyl-5-(2,2-difluorocyclopentane-1-carboxamido)-1H-indazol-1-yl)acetyl)-N-(6-bromo-3-methylpyridin-2-yl)-5-methyl-2-azabicyclo[3.1.0]hexane-3-carboxamide] cannot be ordered by IC50: less than 1000 nM for the first, less than 1000 nM for the second.

Compared with CC(=O)c1ccn(CC(=O)N2C[C@H](F)C[C@H]2C(=O)Nc2cccc(Br)n2)n1 [Compound T-14, (2S,4R)-1-(2-(3-acetyl-1H-pyrazol-1-yl)acetyl)-N-(6-bromopyridin-2-yl)-4-fluoropyrrolidine-2-carboxamide], CC(=O)c1cn(CC(=O)N2C[C@H](F)C[C@H]2C(=O)Nc2cccc(Br)n2)c(C)n1 [Compound T-20, (2S,4R)-1-(2-(4-acetyl-2-methyl-1H-imidazol-1-yl)acetyl)-N-(6-bromopyridin-2-yl)-4-fluoropyrrolidine-2-carboxamide] is higher in IC50: less than 1000 nM for the first, greater than 10000 nM for the second. The first is the more potent here.

NC(=O)c1cc(C(F)(F)F)n(CC(=O)N2C[C@H](F)C[C@H]2C(=O)Nc2cccc(Br)n2)n1 [Compound T-15, 1-(2-((2S,4R)-2-((6-bromopyridin-2-yl)carbamoyl)-4-fluoropyrrolidin-1-yl)-2-oxoethyl)-5-(trifluoromethyl)-1H-pyrazole-3-carboxamide] and CC(=O)c1cc(C(=O)O)n(CC(=O)N2C[C@H](F)C[C@H]2C(=O)Nc2cccc(Br)n2)c1 [Compound T-17, 4-acetyl-1-(2-((2S,4R)-2-((6-bromopyridin-2-yl)carbamoyl)-4-fluoropyrrolidin-1-yl)-2-oxoethyl)-1H-pyrrole-2-carboxylic acid] cannot be ordered by IC50: less than 1000 nM for the first, less than 1000 nM for the second.

First: COC(=O)c1cc(C(C)=O)cn1CC(=O)N1C[C@H](F)C[C@H]1C(=O)Nc1cccc(Br)n1 [Compound T-16, methyl 4-acetyl-1-(2-((2S,4R)-2-((6-bromopyridin-2-yl)carbamoyl)-4-fluoropyrrolidin-1-yl)-2-oxoethyl)-1H-pyrrole-2-carboxylate]
Second: CC(=O)c1cc(C(=O)N2CCC(F)(F)C2)n(CC(=O)N2C[C@H](F)C[C@H]2C(=O)Nc2cccc(Br)n2)c1 [Compound T-18, (2S,4R)-1-(2-(4-acetyl-2-(3,3-difluoropyrrolidine-1-carbonyl)-1H-pyrrol-1-yl)acetyl)-N-(6-bromopyridin-2-yl)-4-fluoropyrrolidine-2-carboxamide]
The IC50 of the first is lower: 1000 to 10000 nM for the first, greater than 10000 nM for the second. The first is the more potent here.

CC(=O)c1cc(C(=O)NCc2cnc(C)nc2)n(CC(=O)N2C[C@H](F)C[C@H]2C(=O)Nc2cccc(Br)n2)c1 [Compound T-19, 4-acetyl-1-(2-((2S,4R)-2-((6-bromopyridin-2-yl)carbamoyl)-4-fluoropyrrolidin-1-yl)-2-oxoethyl)-N-((2-methylpyrimidin-5-yl)methyl)-1H-pyrrole-2-carboxamide] and CC(=O)c1cc(C(=O)NCc2cscn2)n(CC(=O)N2C[C@H](F)C[C@H]2C(=O)Nc2cccc(Br)n2)n1 [Compound T-24, 3-acetyl-1-(2-((2S,4R)-2-((6-bromopyridin-2-yl)carbamoyl)-4-fluoropyrrolidin-1-yl)-2-oxoethyl)-N-(thiazol-4-ylmethyl)-1H-pyrazole-5-carboxamide] cannot be ordered by IC50: less than 1000 nM for the first, less than 1000 nM for the second.

CCOC(=O)/C=C/c1cn(CC(=O)N2C[C@H](F)C[C@H]2C(=O)Nc2cccc(Br)n2)nc1C(N)=O [Compound T-22, (E)-ethyl 3-(1-(2-((2S,4R)-2-((6-bromopyridin-2-yl)carbamoyl)-4-fluoropyrrolidin-1-yl)-2-oxoethyl)-3-carbamoyl-1H-pyrazol-4-yl)acrylate] and NC(=O)c1nn(CC(=O)N2C[C@H](F)C[C@H]2C(=O)Nc2cccc(Br)n2)cc1/C=C/C(=O)NC1CC1 [Compound T-28, 1-(2-((2S,4R)-2-((6-bromopyridin-2-yl)carbamoyl)-4-fluoropyrrolidin-1-yl)-2-oxoethyl)-4-((E)-3-(cyclopropylamino)-3-oxoprop-1-en-1-yl)-1H-pyrazole-3-carboxamide] fall in the same range of IC50: 1000 to 10000 nM for the first, 1000 to 10000 nM for the second.

CC(=O)c1nn(CC(=O)N2[C@H](C(=O)Nc3nc(Br)ccc3C)C[C@@]3(C)C[C@@H]23)c2ccc(OC(=O)NC3CC3)cc12 [Compound T-32, 3-acetyl-1-(2-((1R,3S,5R)-3-((6-bromo-3-methylpyridin-2-yl)carbamoyl)-5-methyl-2-azabicyclo[3.1.0]hexan-2-yl)-2-oxoethyl)-1H-indazol-5-yl cyclopropylcarbamate] and CC(=O)c1nn(CC(=O)N2[C@H](C(=O)Nc3nc(Br)ccc3C)C[C@@]3(CNC(=O)CC(F)(F)F)C[C@@H]23)c2c(C)cccc12 [Compound T-35, (1R,3S,5R)-2-(2-(3-acetyl-7-methyl-1H-indazol-1-yl)acetyl)-N-(6-bromo-3-methylpyridin-2-yl)-5-((3,3,3-trifluoropropanamido)methyl)-2-azabicyclo[3.1.0]hexane-3-carboxamide] cannot be ordered by IC50: less than 1000 nM for the first, less than 1000 nM for the second.
